This is an account of results in patent US11730720B2, “ALK5 inhibitors” (THERAVANCE BIOPHARMA R&D IP, LLC, priority 2018, dated 2023).

Bounds are passed on as bounds.

Experiment [1] concerns the target T1, recombinant human ALK5 (TGF-βR1) protein (Homo sapiens, UniProt P36897).
T1 construct: purchased Life Technologies PR9075A
T1 sequence (P36897 34-503): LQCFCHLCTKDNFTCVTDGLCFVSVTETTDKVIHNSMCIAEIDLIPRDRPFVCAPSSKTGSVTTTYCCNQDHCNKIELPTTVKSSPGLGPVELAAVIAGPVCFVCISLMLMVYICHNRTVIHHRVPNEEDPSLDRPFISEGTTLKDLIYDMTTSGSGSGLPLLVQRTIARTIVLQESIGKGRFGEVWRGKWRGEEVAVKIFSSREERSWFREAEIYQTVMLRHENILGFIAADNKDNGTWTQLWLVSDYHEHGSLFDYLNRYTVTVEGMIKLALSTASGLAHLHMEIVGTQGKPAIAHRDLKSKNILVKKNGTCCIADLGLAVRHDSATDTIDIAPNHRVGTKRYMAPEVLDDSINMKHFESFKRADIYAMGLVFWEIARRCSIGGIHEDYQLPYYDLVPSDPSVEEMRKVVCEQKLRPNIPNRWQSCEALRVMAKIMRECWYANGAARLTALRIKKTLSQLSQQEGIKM
Put plainly: Biochemical ALK5 (TGF-βR1) assay to measure pKi (LANCE Ultra ULight kinase assay). The note with it: apparent pKi, converted from pIC50 using the Cheng-Prusoff equation. As to the method:
Example 254: Biochemical ALK5 (TGF-βR1) Assay to Measure pKi
The assays were performed in a 384-well plate (24 columns×16 wells/rows). An Echo® 550 Liquid Handler (Labcyte) was used to prepare various intermediate concentrations of compounds of the present disclosure in 100% DMSO. From the intermediate concentrations, a range of concentrations (from 10 μM to 25 pM corresponding to volumes up to 105 nL) were prepared and ejected into a final assay plate to be used to create individual dose response curves for each of the subject compounds. To a separate column within the assay plate, 105 nL of DMSO in each well was used to establish a maximum assay signal. Additionally, 105 nL of 100 μM SD-208, a selective TGF-βR1 inhibitor (Catalog #S7624, Selleck Chemicals), was used in another column of wells to establish a minimal assay signal.
With a multidrop dispenser, 8 μL of enzyme mixture (1.25× final) was added to each well. The enzyme mixture consisted of 250 pM ALK5 enzyme and 62.5 nM peptide substrate (LANCE® (lanthanide chelate excite) Ultra ULight™-DNA Topoisomerase 2-alpha (Thr1342)) prepared in assay buffer (50 mM HEPES, 10 mM MgCl2, 1 mM EGTA, 0.01% Tween-20, pH 7.5 at room temperature) with 2 mM DTT added prior to use. The plate was then sealed with an adhesive seal and allowed to equilibrate for 60 minutes at room temperature.
Next, 2 μL of 125 μM ATP (5× final, 125 μM ATP prepared in assay buffer with 2 mM DTT) was added to the incubated mixtures, covered with a MicroClime® Environmental Lid (Product No. LLS-0310, Labcyte) and immediately transferred to 37° C. The reactions were allowed to proceed at 37° C. for 60 minutes before terminating with the addition of 10 μL of detection antibody (LANCE® (lanthanide chelate excite) Ultra Europium-anti-phospo-DNA Topoisomerase 2-alpha (Thr1342)) in detection mixture (12 mM EDTA, 4 nM detection antibody prepared in detection buffer (50 mM Tris-HCl, 150 mM NaCl, 0.5% BSA (Fraction V), pH 7.0)) at room temperature. The plate was then read on a Perkin Elmer EnVision Plate Reader using europium specific reader settings with excitation and emission wavelengths set to 320 or 340 nm and 665 nm, respectively.
For dose-response analyses, percent inhibition versus compound concentrations were plotted, and pIC50 values were determined from a 4-parameter robust fit model with GraphPad Prism V5 Software (GraphPad Software, Inc., La Jolla, Calif.). This model obtains pIC50 values by fitting the sigmodial dose-response (variable slope) equation to the data. Results were expressed as pIC50 (negative logarithm of IC50) and subsequently converted to pKi (negative logarithm of dissociate constant, K) using the Cheng-Prusoff equation.
The higher the value of pKi (lower value of Ki), the greater the inhibition of ALK5 activity.
In general terms: TR-FRET usually uses a lanthanide donor and a delayed reading to cut background.

Experiment [2] relates to TGF-β-stimulated SMAD3 phosphorylation in BEAS-2B cells. Put plainly: Cellular ALK5 potency assay, inhibition of TGF-β stimulated pSMAD3 formation in BEAS-2B cells. In kind it is cell-based. As to conditions: Homo sapiens, inhibition of TGF-β (10 ng/mL) stimulated pSMAD3 formation, 1 hour compound incubation, read-out: BEAS2B pIC50 (converted). As for the experimental part: Example 255: Cellular ALK5 Potency Assay to Measure pIC50, Inhibition of TGF-β Stimulated pSMAD3 Formation in BEAS-2B Cells
The potency of compounds of the present disclosure for inhibition of TGF-β-stimulated SMAD3 phosphorylation was measured in BEAS-2B cells, a human lung epithelial cell line. TGF-β signals through activin receptor-like kinase 5 (ALK5) immediately prior to SMAD3 phosphorylation.
BEAS-2B cells were grown using 50% DMEM (Life Technologies) and 50% F-12 (Life Technologies) media, supplemented with 10% Fetal Bovine Serum (ATCC), 25 mM HEPES (Life Technologies), and 1×Pen-Strep (Life Technologies). Cells were cultured in a humidified incubator set at 37° C., 5% CO2, and trypsonized using 0.25% Trypsin with 0.5% polyvinylpyrrolidone (PVP).
For the assay, BEAS-2B cells were seeded at 7,500 cells/well (25 μL/well) in a 384-well plate and cultured overnight. Before dosing, growth media was aspirated and the wells were rinsed with HBSS Buffer (HBSS with Calcium and Magnesium, Life Technologies) supplemented with 25 mM HEPES (Life Technologies) and 1% Bovine Serum Albumin (Roche). Compounds were serially diluted in DMSO, then further diluted with supplemented HBSS Buffer (50 μL/well) to create a compound plate 3× of the final assay concentration, at 0.3% DMSO. The diluted compounds were then added to the cells (8 μL/well) and incubated at 37° C., 5% CO2 for 1 hour. After the compound incubation, TGF-β (R&D Systems) reconstituted in supplemented HBSS Buffer was added to the cells ([…], final concentration 10 ng/mL) and incubated for a further 30 minutes, after which the cells were immediately lysed with AlphaLISA lysis buffer (PerkinElmer). AlphaLISA Acceptor and Detector beads (PerkinElmer) were added 2 hours apart, then incubated overnight to be read the next day. The potency of the compound was determined through analysis of dose-dependent quantified changes in pSMAD3 signal from baseline (non-compound treated TGF-β stimulated cells). Data are expressed as pIC50 (negative decadic logarithm IC50) values.

Turning to `CN(C)C1CCN(c2cnc3ccc(-c4c[nH]nc4-c4cc(Cl)c(F)cc4F)nc3c2)C1` (racemic) [Compound 6-22, rac-(3S)-1-[6-[3-(5-chloro-2,4-difluoro-phenyl)-1H-pyrazol-4-yl]-1,5-naphthyridin-3-yl]-N,N-dimethyl-pyrrolidin-3-amine], the Ki in experiment [1] is 0.0398 to 0.316 nM. Also, the IC50 in experiment [2] was 25.1 to 158 nM.
The like results for `CNC(=O)C1CN(c2cnc3ccc(-c4c[nH]nc4-c4cc(Cl)c(F)cc4F)nc3c2)CCN1` (racemic) [Compound 6-25, rac-(2R)-4-[6-[3-(5-chloro-2,4-difluoro-phenyl)-1H-pyrazol-4-yl]-1,5-naphthyridin-3-yl]-N-methyl-piperazine-2-carboxamide] were, in that order, 0.0398 to 0.316 nM and 25.1 to 158 nM.
For the compound `Fc1cc(F)c(-c2n[nH]cc2-c2ccc3ncc(NCC4CCCN4)cc3n2)cc1Cl` (racemic) [Compound 6-73, 6-[3-(5-chloro-2,4-difluoro-phenyl)-1H-pyrazol-4-yl]-N-[[rac-(2S)-pyrrolidin-2-yl]methyl]-1,5-naphthyridin-3-amine], the Ki in experiment [1] was 0.398 to 3.16 nM. In addition, the IC50 in experiment [2] was 25.1 to 158 nM.
On the same counts, the results for `CN(C)C1CCN(c2cnc3ccc(-c4c[nH]nc4-c4ccc(F)c(F)c4)nc3c2)C1` (racemic) [Compound 8-5, rac-(3S)-1-[6-[3-(3,4-difluorophenyl)-1H-pyrazol-4-yl]-1,5-naphthyridin-3-yl]-N,N-dimethyl-pyrrolidin-3-amine] are 0.398 to 3.16 nM and 25.1 to 158 nM.
The like results for `COCc1cccc(-c2n[nH]cc2-c2ccc3ncc(N4CCC(N(C)C)C4)cc3n2)c1` (racemic) [Compound 14-4, rac-(3S)-1-[6-[3-[3-(methoxymethyl)phenyl]-1H-pyrazol-4-yl]-1,5-naphthyridin-3-yl]-N,N-dimethyl-pyrrolidin-3-amine] were, in that order, 3.98 to 31.6 nM and 25.1 to 158 nM.
As to `CN(C)C1CCN(c2cnc3ccc(-c4nc[nH]c4-c4cc(Cl)ccc4F)cc3c2)C1` (racemic) [Compound 17-5, rac-(3S)-1-[6-[5-(5-chloro-2-fluoro-phenyl)-1H-imidazol-4-yl]-3-quinolyl]-N,N-dimethyl-pyrrolidin-3-amine], the Ki in experiment [1] is 0.0398 to 0.316 nM. Also, the IC50 in experiment [2] is 25.1 to 158 nM.
The like results for `CN(C)C1CCN(c2cnc3ccc(-c4c(-c5cc(Cl)ccc5F)nc5ccccn45)cc3c2)C1` (racemic) [Compound 19-7, rac-(3S)-1-[6-[2-(5-chloro-2-fluoro-phenyl)imidazo[1,2-a]pyridin-3-yl]-3-quinolyl]-N,N-dimethyl-pyrrolidin-3-amine] were, in that order, 0.0398 to 0.316 nM and 200 to 1260 nM.
Take `C[C@@H]1CN(CCNc2cnc3ccc(-c4c[nH]nc4-c4cc(Cl)ccc4F)nc3c2)C[C@H](C)N1` [Compound 1-1, 6-(3-(5-chloro-2-fluorophenyl)-1H-pyrazol-4-yl)-N-(2-((3S,5R)-3,5-dimethylpiperazin-1-yl)ethyl)-1,5-naphthyridin-3-amine]: the Ki in experiment [1] is 0.0398 to 0.316 nM. Further, in experiment [2], the IC50 was 25.1 to 158 nM.
With `CC(C)N1CCN(CCNc2cnc3ccc(-c4c[nH]nc4-c4cc(Cl)ccc4F)nc3c2)CC1` [Compound 1-2], in experiment [1], the Ki was 0.0398 to 0.316 nM. The IC50 in experiment [2] was at most 20 nM.
The like results for `CN1CCC(Nc2cnc3ccc(-c4c[nH]nc4-c4cc(Cl)ccc4F)nc3c2)CC1` [Compound 1-3, 6-[3-(5-chloro-2-fluoro-phenyl)-1H-pyrazol-4-yl]-N-(1-methyl-4-piperidyl)-1,5-naphthyridine-3-amine] were, in that order, 0.0398 to 0.316 nM and at most 20 nM.
The like results for `CN1CCC(Nc2cnc3ccc(-c4c[nH]nc4-c4cc(Cl)ccc4F)nc3c2)C1` (centres unmarked) [Compound 1-4, 6-[3-(5-chloro-2-fluoro-phenyl)-1H-pyrazol-4-yl]-N-(1-methylpyrrolidin-3-yl)-1,5-naphthyridin-3-amine] were, in that order, 0.398 to 3.16 nM and 25.1 to 158 nM.
The like results for `CC(C)N1CCN(C(C)(C)CNc2cnc3ccc(-c4c[nH]nc4-c4cc(Cl)ccc4F)nc3c2)CC1` [Compound 1-5, 6-[3-(5-chloro-2-fluoro-phenyl)-1H-pyrazol-4-yl]-N-[2-(4-isopropylpiperazin-1-yl)-2-methyl-propyl]-1,5-naphthyridin-3-amine] were, in that order, 3.98 to 31.6 nM and 25.1 to 158 nM.
Consider `COCC(C)(CNc1cnc2ccc(-c3c[nH]nc3-c3cc(Cl)ccc3F)nc2c1)N1CCN(C(C)C)CC1` (centres unmarked) [Compound 1-6, 6-[3-(5-chloro-2-fluoro-phenyl)-1H-pyrazol-4-yl]-N-[2-(4-isopropylpiperazin-1-yl)-3-methoxy-2-methyl-propyl]-1,5-naphthyridin-3-amine], for which, in experiment [1], the Ki was 0.398 to 3.16 nM. Also, the IC50 in experiment [2] was 200 to 1260 nM.
Consider `CN1CC(Nc2cnc3ccc(-c4c[nH]nc4-c4cc(Cl)ccc4F)nc3c2)C1` [Compound 1-7, 6-[3-(5-chloro-2-fluoro-phenyl)-1H-pyrazol-4-yl]-N-(1-methylazetidin-3-yl)-1,5-naphthyridin-3-amine], for which the Ki in experiment [1] is 0.0398 to 0.316 nM. In addition, the IC50 in experiment [2] is at most 20 nM.
On the same counts, the results for `Fc1ccc(Cl)cc1-c1n[nH]cc1-c1ccc2ncc(NCCN3CCC3)cc2n1` [Compound 1-8, N-[2-(azetidin-1-yl)ethyl]-6-[3-(5-chloro-2-fluoro-phenyl)-1H-pyrazol-4-yl]-1,5-naphthyridin-3-amine] are 0.0398 to 0.316 nM and at most 20 nM.
The like results for `CN1CCN(CC(C)(C)Nc2cnc3ccc(-c4c[nH]nc4-c4cc(Cl)ccc4F)nc3c2)CC1` [Compound 1-9, 6-[3-(5-chloro-2-fluoro-phenyl)-1H-pyrazol-4-yl]-N-[1,1-dimethyl-2-(4-methylpiperazin-1-yl)ethyl]-1,5-naphthyridin-3-amine] were, in that order, 3.98 to 31.6 nM and 200 to 1260 nM.
